Measured values from patent publication US20240325381A1 (GUANGZHOU INSTITUTES OF BIOMEDICINE AND HEALTH, CHINESE …, priority 2021, published 2024).

How the values were obtained:
Format in all cases: cell-based
[1] = system: Mito-GFP-labeled neural precursor cells; test: Mitochondrial clearance after knockdown of classic mitophagy core genes in neural precursor cells; settings: 15 μM flunarizine, 3 days; shTRC, shATG5-a/b, shPINK1-a/b, shFUNDC1-a/b
Description: The corresponding classic mitophagy core genes (including shTRC, shATG5-a, shATG5-b, shPINK1-a, shPINK1-b, shFUNDC1-a, and shFUNDC1-b) in mito-GFP-labeled neural precursor cells were knocked down. Then, the cells were plated on a glass slide, the surface coverage of neural precursor cells on the glass slide was 80%. […] Thereafter, the cells were detected with a confocal microscope. The specific results are illustrated in FIG. 3B and FIG. 3C.

[2] = system: neural precursor cells labeled with LAMP1-GFP and mito-DsRed; test: Mitochondria entering lysosomes (LAMP1-GFP / mito-DsRed overlap); settings: 15 μM flunarizine, 12 hours
Description: The neural precursor cells labeled with LAMP1-GFP and mito-DsRed were plated on a glass slide, and the surface coverage of the neural precursor cells on the glass slide was 80%. […] Then, the results were detected with a confocal microscope.

[3] = system: Mito-GFP-labeled mouse embryonic fibroblasts (MEF cells); test: Mitochondrial clearance in MEF cells with mitophagy core genes knocked off; settings: 15 μM flunarizine, 3 days; WT, ATG5, PARK2, FUNDC1
Description: Mito-GFP-labeled mouse embryonic fibroblasts (MEF cells) were plated on a glass slide. The corresponding classic mitophagy core genes (including WT, ATG5, PARK2, and FUNDC1) in the MEF cells were knocked off. The surface coverage of the cells on the glass slide was 80%. […] Then, the cells were detected with a confocal microscope.

[4] = system: neural precursor cells labeled with LC3-GFP and mito-DsRed; test: Co-localization of mitochondria with LC3-GFP labeled autophagosomes (confocal microscope); settings: 15 μM flunarizine, 12 hours
Description: The neural precursor cells labeled with LC3-GFP and mito-DsRed were plated on the glass slides, and the surface coverage of the neural precursor cells on the glass slides was 80%. […] Then, the results were detected with a confocal microscope.

[5] = system: Mito-DsRed-labeled neural precursor cells; test: Mitochondrial efflux (mitochondria, lysosome and cell membrane overlap); settings: 15 μM flunarizine, 24 hours; Lysotraker DeepRed, FM1-43
Description: Mito-DsRed-labeled neural precursor cells were plated on a glass slide, and the surface coverage of the neural precursor cells on the glass slide was 80%. […] The final concentration was 15 μM. The lysosomes were labeled with Lysotraker DeepRed, the cell membranes were labeled with FM1-43, and then the results were detected with a confocal microscope.

[6] = system: Mito-GFP-labeled neural precursor cells; test: Clearance of mitochondria by flunarizine in mito-GFP-labeled neural precursor cells (confocal microscopy); settings: for mitochondrial morphology in neural precursor cells: 3 days
Description: Mito-GFP-labeled neural precursor cells were plated on a 6-well plate, and the surface coverage of the neural precursor cells on the 6-well plate was 80%. […] Then, the cells were detected with a confocal microscopy and the clearance efficiency of the mitochondrial was observed.
The mito-GFP-labeled neural precursor cells were plated on a 6-well plate, and the surface coverage of the neural precursor cells on the 6-well plate was 80%. […] Then, the results were detected with a confocal microscope and the efficiency of the mitochondrial clearance was observed.

Which results are given for `Fc1ccc(C(c2ccc(F)cc2)N2CCN(C/C=C/c3ccccc3)CC2)cc1` [flunarizine]?
mitochondrial clearance after knockdown of mitophagy core genes [1]: knockdown of related genes could not inhibit mitochondrial clearance; overlap of LAMP1 and mito (mitochondria entering lysosomes) [2]: wrapped by lysosomes; mitochondrial clearance in MEF cells with mitophagy genes knocked off [3]: knockdown of mitophagy-related genes cannot inhibit mitochondrial clearance; co-localization of mitochondria with LC3-GFP labeled autophagosomes [4]: not co-localized with LC3-GFP labeled autophagosomes; mitochondrial efflux vesicles on the cell surface [5]: efflux vesicles wrapped around mitochondria were formed; removal of intracellular mitochondria ([6]; 15 μM flunarizine, 3 days of treatment, 80% surface coverage): substantially completely removed; concentration that can effectively remove the mitochondria in the cells ([6]; after 3 days of treatment, tested 5, 10, 15, 20, 25 μM): above 10 μM; removal of intracellular mitochondria ([6]; contact time more than 3 days): completely removed; mitochondrial morphology in neural precursor cells ([6]; final concentration 15 μM): basically not observed; mitochondrial morphology in neural precursor cells ([6]; final concentration 20 μM): basically not observed; mitochondrial morphology in neural precursor cells ([6]; final concentration 25 μM): basically not observed
